Measured values as given in patent EP4745134A1 (Jiangsu Yahong Meditech Co., Ltd., priority 2023, dated 2025).
Like-named read-outs stand apart in the source and are kept apart here.

Assays:
[1] = test system: HCT116 MTAP KO cells; assay: Inhibitory activity against cell proliferation (CellTiter Glo, 6 days), HCT116 MTAP KO; type: cell-based; conditions: for IC50: Homo sapiens, HCT-116, 144 h, HCT116 MTAP KO cells, 6 days, CellTiter Glo, read-out: HCT116 MTAP KO IC50; for Selectivity HCT 116-WT/ HCT116 MTAP KO: ratio of IC50 HCT116-WT / HCT116 MTAP KO
In short: (§1)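 Viability is measured by CellTiter Glo luminescence on day 7, following a 6-day treatment with compounds serially diluted 4-fold over 8 points from 10000 nM. Both lines are plated at 250 cells per well and cultured overnight beforehand.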

[2] = molecular target: PRMT5-MTA (Homo sapiens, UniProt O14744); assay: Enzymatic inhibitory activity against PRMT5-MTA (AlphaScreen); type: biochemical
In short: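 PRMT5/[…] (1 nM) was preincubated for 30 min at room temperature with 1 µM […] and 2.5 µM SAM, then exposed to compound (10-point, 3-fold from 1000 nM) for 15 min at 23 °C. Histone H4 substrate (5 nM) was added and reacted for 45 min at 23 °C. Symmetric dimethyl-R3 H4 was detected by AlphaScreen and IC50 calculated.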

[3] = test system: HCT116-WT cells; assay: Inhibitory activity against cell proliferation (CellTiter Glo, 6 days), HCT116-WT; type: cell-based; conditions: 144 h, HCT116-WT cells, 6 days, CellTiter Glo; read-out: HCT116-WT IC50
In short: as §1

Chain of PRMT5-MTA (O14744 whole entry): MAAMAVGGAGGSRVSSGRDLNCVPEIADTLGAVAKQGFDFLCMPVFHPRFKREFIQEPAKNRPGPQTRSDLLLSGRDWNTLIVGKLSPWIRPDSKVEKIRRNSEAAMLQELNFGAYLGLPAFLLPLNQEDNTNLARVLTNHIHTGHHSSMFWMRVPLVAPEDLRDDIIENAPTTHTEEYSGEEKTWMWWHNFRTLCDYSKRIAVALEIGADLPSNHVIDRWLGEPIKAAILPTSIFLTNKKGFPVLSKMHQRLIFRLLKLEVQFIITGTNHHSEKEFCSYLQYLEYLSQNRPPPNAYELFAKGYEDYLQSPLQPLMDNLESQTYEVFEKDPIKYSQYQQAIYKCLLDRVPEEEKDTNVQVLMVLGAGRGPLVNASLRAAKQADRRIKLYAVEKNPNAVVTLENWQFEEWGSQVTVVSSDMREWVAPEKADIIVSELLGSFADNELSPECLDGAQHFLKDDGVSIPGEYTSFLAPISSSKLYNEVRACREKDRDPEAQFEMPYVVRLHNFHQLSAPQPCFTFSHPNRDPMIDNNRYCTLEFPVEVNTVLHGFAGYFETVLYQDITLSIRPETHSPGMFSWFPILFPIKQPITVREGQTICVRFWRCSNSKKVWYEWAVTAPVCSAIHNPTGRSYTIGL
Chain of PRMT5-MTA (Q9BQA1 whole entry partner): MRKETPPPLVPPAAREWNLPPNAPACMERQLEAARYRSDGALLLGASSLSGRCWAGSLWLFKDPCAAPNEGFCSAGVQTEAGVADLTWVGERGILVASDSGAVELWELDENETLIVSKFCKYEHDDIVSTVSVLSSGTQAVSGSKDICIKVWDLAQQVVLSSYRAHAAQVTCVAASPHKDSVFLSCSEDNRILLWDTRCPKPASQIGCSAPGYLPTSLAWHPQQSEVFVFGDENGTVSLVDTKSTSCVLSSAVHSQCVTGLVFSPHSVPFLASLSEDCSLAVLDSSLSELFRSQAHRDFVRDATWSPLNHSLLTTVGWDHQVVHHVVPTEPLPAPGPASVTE

| SMILES | IC50 [1] | Selectivity HCT 116-WT/ HCT116 MTAP KO [1] | IC50 ([2]; read-out: IC50) | IC50 [3] | IC50 [2] |
| --- | --- | --- | --- | --- | --- |
| C=C1CN(C(=O)c2cc3c(cc2Cl)nc(N)c2cnn(C)c23)N(c2cccc(F)n2)C1 [Example 435, (4-amino-7-chloro-1-methyl-1H-pyrazolo [4,3-c]quinolin-8-yl)(2-(6-fluoropyridin-2-yl)-4-methylenepyrazolidin-1-yl)methanone] | 15 nM | 27.13 | 7.3 nM | 407 nM | – |
| COC1CN(C(=O)c2cc3c(cc2C)nc(N)c2cnn(C)c23)N(c2ccccc2F)C1 (centres unmarked) [Example 436] | 27 nM | 27.19 | – | 734 nM | 4.8 nM |
| COC1CN(C(=O)c2cc3c(cc2Cl)nc(N)c2cnn(C)c23)N(c2ccccc2F)C1 (centres unmarked) [Example 437, (4-amino-7-chloro-1-methyl-1H-pyrazolo [4,3-c]quinolin-8-yl)(2-(2-fluorophenyl)-4-methoxypyrazolidin-1-yl)methanone] | 13 nM | 18.62 | 4.7 nM | 242 nM | – |
| COC1CN(C(=O)c2cc3c(cc2Cl)nc(N)c2cnn(C)c23)N(c2ncc(Br)cc2F)C1 (centres unmarked) [Example 439, (4-amino-7-chloro-1-methyl-1H-pyrazolo [4,3-c]quinolin-8-yl)(2-(5-bromo-3-fluor opyridin-2-yl)-4-methoxypyrazolidin-1-yl)methanone] | 37 nM | 19.86 | 5.5 nM | 735 nM | – |
| COC1CN(C(=O)c2cc3c(cc2C)nc(N)c2cnn(C)c23)N(c2ncc(Cl)cc2F)C1 (centres unmarked) [Example 441, (4-amino-1,7-dimethyl-1H-pyrazolo[4,3-c]quinolin-8-y1)(2-(5-chloro-3-fluoropyridin-2-yl)-4-methoxypyrazolidin-1-yl)met hanone] | 48 nM | 37.31 | 7.2 nM | 1790 nM | – |
| COC1CN(C(=O)c2cc3c(cc2Cl)nc(N)c2cnn(C)c23)N(c2ncc(F)cc2F)C1 (centres unmarked) [Example 442, (4-amino-7-chloro-1-methyl-1H-pyrazolo [4,3-c]quinolin-8-yl)(2-(3,5-2 fluoropyridin-2-yl)-4-methoxypyrazolidin-1-yl)methanone] | 42 nM | 15.10 | 4.6 nM | 634 nM | – |
| COC1CN(C(=O)c2cc3c(cc2C)nc(N)c2cnn(C)c23)N(c2ncc(F)cc2F)C1 (centres unmarked) [Example 443, (4-amino-1,7-dimethyl-1H-pyrazolo[4,3-c]quinolin-8-yl)(2-(3,5- ? fluoropyridin-2-yl)-4-methoxypyrazolidin-1-yl)methanone] | 26 nM | 18.00 | 5 nM | 468 nM | – |
| COC1CN(C(=O)c2cc3c(cc2Cl)nc(N)c2cnn(C)c23)N(c2ncccc2F)C1 (centres unmarked) [Example 444, (4-amino-7-chloro-1-methyl-1H-pyrazolo [4,3-c]quinolin-8-yl)(2-(3-fluoropyridin-2-yl)-4-methoxypyrazolidin-1-yl)methanone] | 80 nM | 15.43 | 3.7 nM | 1230 nM | – |
| COC1CN(C(=O)c2cc3c(cc2C)nc(N)c2cnn(C)c23)N(c2cc(F)ccc2F)C1 (centres unmarked) [Example 445, (4-amino-1,7-dimethyl-1H-pyrazolo[4,3-c]quinolin-8-yl)(2-(2,5-difluorophenyl)-4-methoxypyrazolidin-1-yl)methanone] | 22 nM | 24.91 | 6.4 nM | 548 nM | – |
| COC1CN(C(=O)c2cc3c(cc2Cl)nc(N)c2cnn(C)c23)N(c2cccc(F)c2F)C1 (centres unmarked) [Example 447, (4-amino-7-chloro-1-methyl-1H-pyrazolo [4,3-c]quinolin-8-yl)(2-(2,3-difluorophenyl)-4-methoxypyrazolidin-1-yl)methanone] | 24 nM | 13.13 | 6.8 nM | 315 nM | – |
| COC1CN(C(=O)c2cc3c(cc2Cl)nc(N)c2cnn(C)c23)N(c2cccc(F)n2)C1 (centres unmarked) [Example 448, (4-amino-7-chloro-1-methyl-1H-pyrazolo [4,3-c]quinolin-8-yl)(2-(6-fluoropyridin-2-yl)-4-methoxypyrazolidin-1-yl)methanone] | 27 nM | 21.70 | 5.1 nM | 586 nM | – |
| COC1CN(C(=O)c2cc3c(cc2C)nc(N)c2cnn(C)c23)N(c2cccc(F)n2)C1 (centres unmarked) [Example 449, (4-amino-1,7-dimethyl-1H-pyrazolo[4,3-c]quinolin-8-yl)(2-(6-fluoropyridin-2-yl) -4-methoxypyrazolidin-1-yl)methanone] | 63 nM | 23.37 | 5.2 nM | 1470 nM | – |
| Cc1cc2nc(N)c3cnn(C)c3c2cc1C(=O)N1CC(F)CN1c1ncccc1F (centres unmarked) [Example 450, (4-amino-1,7-dimethyl-1H-pyrazolo[4,3-c]quinolin-8-yl)(4-fluoro-2-(3-fluoropyridin-2-yl)pyrazolidin-1-yl)methanone] | 20 nM | 61.20 | 3.8 nM | 1220 nM | – |
| Cn1ncc2c(N)nc3cc(Cl)c(C(=O)N4CC(OCC(F)(F)F)CN4c4ncccc4F)cc3c21 (centres unmarked) [Example 451, (4-amino-7-chloro-1-methyl-1H-pyrazolo[4,3-c]quinolin-8-yl)(2-(3-fluoropyridin-2-yl)-4-(2,2,2-trifluoroethoxy)pyrazolidin-1-yl)methanone] | 40 nM | 25.30 | 7 nM | 1010 nM | – |
| Cc1cc2nc(N)c3cnn(C)c3c2cc1C(=O)N1CC(OCC(F)(F)F)CN1c1ncccc1F (centres unmarked) [Example 452, (4-amino-1,7-dimethyl-1H-pyrazolo[4,3-c]quinolin-8-yl)(2-(3-fluoropyridin-2-yl)-4-(2,2,2-trifluoroethoxy)pyrazolidin-1-yl) methanone] | 45 nM | 31.67 | 7.3 nM | 1420 nM | – |
| CCOC1CN(C(=O)c2cc3c(cc2C)nc(N)c2cnn(C)c23)N(c2ncccc2F)C1 (centres unmarked) [Example 453, (4-amino-1,7-dimethyl-1H-pyrazolo[4,3-c]quinolin-8-yl)(4-ethoxy-2-(3-fluoropyridin-2-yl)pyrazolidin-1-yl)methanone] | 23 nM | 22.74 | 5.2 nM | 523 nM | – |
| [2H]C([2H])([2H])OC1CN(C(=O)c2cc3c(cc2C)nc(N)c2cnn(C)c23)N(c2ncccc2F)C1 (centres unmarked) [Example 454, (4-amino-1,7-dimethyl-1H-pyrazolo[4,3-c]quinolin-8-yl)(2-(3-fluoropyridin-2-yl)-4-(methoxy-D3)pyrazolidin-1-yl)methanone] | 36 nM | 20.89 | 5.9 nM | 752 nM | – |
| Cc1cc2nc(N)c3cnn(C)c3c2cc1C(=O)N1CC(F)(F)CN1c1ncccc1F [Example 455, (4-amino-1,7-dimethyl-1H-pyrazolo[4,3-c]quinolin-8-yl)(4,4-difluoro-2-(3-fluoropyridin-2-yl)pyrazolin-1-yl)methanone] | 9.5 nM | 32.11 | 10.1 nM | 305 nM | – |
| Cn1ncc2c(N)nc3cc(Cl)c(C(=O)N4CC(F)(F)CN4c4ncc(Br)cc4F)cc3c21 [Example 456, (4-amino-7-chloro-1-methyl-1H-pyrazolo [4,3-c]quinolin-8-yl)(2-(5-bromo-3-fluor opyridin-2-yl)-4,4-difluoropyrazolidin-1-yl)methanone] | 28 nM | 68.89 | 7 nM | 1930 nM | – |
| Cn1ncc2c(N)nc3cc(Cl)c(C(=O)N4CC(F)(F)CN4c4ccccc4F)cc3c21 [Example 457, (4-amino-7-chloro-1-methyl-1H-pyrazolo [4,3-c]quinolin-8-yl)(4,4-difluoro-2-(2-fluorophenyl)pyrazolidin-1-yl)methanone] | 12 nM | 10.25 | 7.5 nM | 123 nM | – |
| Cn1ncc2c(N)nc3cc(Cl)c(C(=O)N4CC(F)(F)CN4c4ncc(F)cc4F)cc3c21 [Example 458, (4-amino-7-chloro-1-methyl-1H-pyrazolo [4,3-c]quinolin-8-yl)(2-(3,5-difluoropyridin-2-yl)-4,4-difluoropyrazolidin-1-yl)met hanone] | 15 nM | 24.73 | 5.1 nM | 371 nM | – |
| Cn1ncc2c(N)nc3cc(Cl)c(C(=O)N4CC(F)(F)CN4c4ncccc4F)cc3c21 [Example 459, (4-amino-7-chloro-1-methyl-1H-pyrazolo [4,3-c]quinolin-8-yl)(4,4-difluoro-2-(3-fluoropyridin-2-yl)pyrazolidin-1-yl)methanone] | 30 nM | 13.60 | 4.7 nM | 408 nM | – |
| Cn1ncc2c(N)nc3cc(Cl)c(C(=O)N4CC(F)(F)CN4c4ncc(Cl)cc4F)cc3c21 [Example 460, (4-amino-7-chloro-1-methyl-1H-pyrazolo [4,3-c]quinolin-8-yl)(2-(5-chloro-3-fluoropyridin-2-yl)-4,4-difluoropyrazolidin-1-yl)methanone] | 18 nM | 26.61 | 8.2 nM | 479 nM | – |
